Patent publication US6486199B1, “Spiro and dispiro 1,2,4-trioxolane antimalarials” (Medicines for Malaria Venture MMV International Centre …, priority 2001, dated 2002)
Values after ≈ are worked out from the molar mass of the structure shown. Values joined by “and” are separate entries in the source; they are usually repeats but may differ in a detail not shown here. Identical values can stand only once. Marks after values point to notes of the source that are not given here.

What was measured:
[1] = tested on: Schistosoma mansoni; assay: treatment of mice infected with Schistosoma mansoni cercaria, six weekly oral doses; assay type: in vivo; conditions: 100 mg/kg p.o. on days 7, 14, 21, 28, 35, 42; individual mice
Excerpt: Mice (MORO SPF female 18-20g) were infected with 90 (±10) cecaria of Schistosoma mansoni subcutaneously.

[2] = tested on: P. berghei; assay: 4-day Peters test against P. berghei in vivo; conditions: 4 day
[3] = tested on: NB2a cell line; assay: neurotoxicity against the NB2a cell line; assay type: cell-based; conditions: NB2a cell line
[4] = tested on: 21-day-old schistosomules of Schistosoma mansoni; assay: effect on 21-day-old schistosomules in mice; assay type: in vivo; conditions: single 200 mg/kg per os
Description: […] Each group was treated per os with OZ compounds at a single dose of 200 mg/kg. Untreated mice served as the control. All groups were killed 4 weeks after treatment and the liver and intestine were removed and separated. The liver and intestine were compressed and alive male and female worms could be seen and counted. The effect of the compounds was evaluated by mean total and female worm burden.

[5] = tested on: ANKA strain of P. Berghei; assay: single dose STI in vivo screen in infected Moro SPF mice
[6] = differential scanning calorimetry (DSC), thermal stability; assay type: physicochemical; conditions: thermal decomposition
[7] = tested on: parasitemia; assay: onset of drug action and recrudescence after single oral dose; assay type: in vivo
Description: The reduction of parasitemia was monitored 12 h after treatment, and the time of recrudescence was assessed by daily blood smears for 14 days, followed by intermittent assessment for up to 30 days.

[8] = tested on: P. berghei; assay: 1-day Peters test against P. berghei in vivo; conditions: 1 day
[9] = tested on: adult schistosomes (49-day-old) of Schistosoma mansoni; assay: effect on adult schistosomes (49-day-old) in mice; assay type: in vivo; conditions: single 400 mg/kg per os
Description: Mice were infected with 100 Schistosoma mansoni cercariae […]. Each group was treated per os with OZ compounds at a single dose of 400 mg/kg. Untreated mice served as the control. All groups were killed 4 weeks after treatment and the liver and intestine were removed and separated. The liver and intestine were compressed and alive male and female worms could be seen and counted.

[10] = tested on: chloroquine-resistant K1 strain of P. falciparum; assay: in vitro screen against chloroquine-resistant K1 strain of P. falciparum; assay type: cell-based; conditions: in vitro, K1 strain
[11] = tested on: adult S. mansoni; assay: activity against adult S. mansoni, treated once at day 49 of infection; assay type: in vivo; conditions: OZ05 200 mg/kg p.o., OZ11 100 mg/kg p.o.

## O=C1CCC2(CC1)OOC1(O2)C2CC3CC(C2)CC1C3 (stereo not drawn) [OZ05, Adamantane-2-spiro-3′-8′-oxo-1′,2′,4′-trioxaspiro[4.5]decane]
[1]
  reduction in parasitaemia: 100% and 53%
[2]; po
  P. berghei (4 day) ED50 po: 1.5 mg/kg
  P. berghei (4 day) ED90 po: 6.1 mg/kg
[2]; sc
  P. berghei (4 day) ED50 sc: 0.6 mg/kg
  P. berghei (4 day) ED90 sc: 1.0 mg/kg
[3]
  IC50: 31 µM
[4]; female worm reduction rate
  FWR (%): 88%
[4]; mean ± standard deviation
  Mean female worm burden: 1.5 ± 1.0^b
[4]; total worm reduction rate
  TWR (%): 90%
[5]; overall judgement of in vitro and in vivo data of Table 2
  antimalarial activity, overall assessment: more active
[5]; percent reduction in parasitemia day 3 post-infection, single 100 mg/kg po
  Activity (%) po: 100/100%
[5]; percent reduction in parasitemia day 3 post-infection, single 100 mg/kg sc
  Activity (%) sc: 100/100%
[5]; single 100 mg/kg po, survival to day 30 = cure
  Survival (days) po: 10.7 days
[5]; single 100 mg/kg sc, survival to day 30 = cure
  Survival (days) sc: 30 days
[6]
  Tm dec. (° C.): 156.3 °C
[7]; single 100 mg/kg po
  duration of action compared with artemether: comparable
[7]; single 100 mg/kg po on day +3 post-infection
  Recrudescence (>5% parasitemia) occurs on day: 5 days
[8]; po
  P. berghei (1 day) ED50 po: 3.5 mg/kg
  P. berghei (1 day) ED90 po: 7.0 mg/kg
[8]; sc
  P. berghei (1 day) ED50 sc: 0.16 mg/kg
  P. berghei (1 day) ED90 sc: 2.3 mg/kg
[9]
  Percentage of dead worm: 13.4 (31/232)
  Total dead worm: 31
[9]; total worm reduction rate
  TWR (%): 0%
[9]; x ± SD
  Mean total worm burden: 40.2 ± 13.6
[10]
  IC50 (ng/ml) K1: 0.19 ng/mL (≈ 0.683 nM)
[11]
  activity against adult S. mansoni: showed activity
